Data taken from patent US20210254272A1, “TEXTILES HAVING ANTIMICROBIAL PROPERTIES” (Livinguard AG, priority 2015, published 2021).

Test system: E. coli (ATCC 25922)
Test: AATCC Test Method 100-2012 antibacterial activity of the treated textile, after 25 washes and 12 abrasion cycles, contact time 60 minutes
Type: cell-based
Conditions: for Performance Test-Log reduction of antimicrobial performance: pad process, 2 min
Method: The antibacterial activity of the textile was tested in accordance with AATCC Test Method 100-2012. Prior to the test, the fabric was cut into coupons of 2×4 inches and washed separately 25 times, and exposed to 12 abrasion cycles, as per US EPA protocol 90072PA4 (described further below). The tests were made against E. coli (ATCC 25922). Contact time was 60 minutes, after inoculating with 10^8 CFU per coupon.

CCCCCCCCCCCCCCCCCC[N+](C)(C)CCC[Si](OC)(OC)OC [Organosilane, dimethyloctadecyl[3-(trimethoxysilyl)propyl] ammonium chloride]
Performance Test-Log reduction of antimicrobial performance (single agent 5 gm/lit, curing 180° C.): 0.93 Log | Performance Test-Log reduction of antimicrobial performance (single agent 10 gm/lit, curing 120° C.): 0.38 Log | Performance Test-Log reduction of antimicrobial performance (single agent 10 gm/lit, curing 140° C.): 0.53 Log | Performance Test-Log reduction of antimicrobial performance (single agent 10 gm/lit, curing 150° C.): 0.62 Log | Performance Test-Log reduction of antimicrobial performance (single agent 10 gm/lit, curing 160° C.): 0.98 Log | Performance Test-Log reduction of antimicrobial performance (single agent 10 gm/lit, curing 180° C.): 2.21 Log | Log reduction of antimicrobial performance (pure cotton fabric, exhaust 80° C., 60 min, dosage 0.1% o.w.f): 0.81 Log | Log reduction of antimicrobial performance (pure cotton fabric, exhaust 80° C., 60 min, dosage 0.2% o.w.f): 1.67 Log | Log reduction of antimicrobial performance (pure cotton fabric, exhaust 80° C., 60 min, dosage 0.5% o.w.f): 1.83 Log | Log reduction of antimicrobial performance (pure cotton fabric, exhaust 80° C., 60 min, dosage 0.8% o.w.f): 2.17 Log | Log reduction of antimicrobial performance (pure cotton fabric, exhaust 80° C., 60 min, dosage 1.0% o.w.f): 2.56 Log | Log reduction of antimicrobial performance (pure cotton, exhaust 80° C., 1% o.w.f, 60 min, curing 180° C., curing dwell time 0.5 min): 0.3 Log | Log reduction of antimicrobial performance (pure cotton, exhaust 80° C., 1% o.w.f, 60 min, curing 180° C., curing dwell time 1.0 min): 1.1 Log | Log reduction of antimicrobial performance (pure cotton, exhaust 80° C., 1% o.w.f, 60 min, curing 180° C., curing dwell time 1.5 min): 1.8 Log | Log reduction of antimicrobial performance (pure cotton, exhaust 80° C., 1% o.w.f, 60 min, curing 180° C., curing dwell time 2.0 min): 2.5 Log | Log reduction of antimicrobial performance (pure cotton, exhaust 80° C., 1% o.w.f, 60 min, curing 180° C., curing dwell time 2.5 min): 2.4 Log | Log reduction of antimicrobial performance (pure cotton, exhaust 80° C., 1% o.w.f, 60 min, curing 180° C., curing dwell time 3.0 min): 1.4 Log | Log reduction of antimicrobial performance (pure polyester fabric, exhaust 80° C., 60 min, curing 180° C., curing dwell time 0.5 min): 0.4 Log | Log reduction of antimicrobial performance (pure polyester fabric, exhaust 80° C., 60 min, curing 180° C., curing dwell time 1.0 min): 1.2 Log | Log reduction of antimicrobial performance (pure polyester fabric, exhaust 80° C., 60 min, curing 180° C., curing dwell time 1.5 min): 1.7 Log | Log reduction of antimicrobial performance (pure polyester fabric, exhaust 80° C., 60 min, curing 180° C., curing dwell time 2.0 min): 2.75 Log | Log reduction of antimicrobial performance (pure polyester fabric, exhaust 80° C., 60 min, curing 180° C., curing dwell time 2.5 min): 2.45 Log | Log reduction of antimicrobial performance (pure polyester fabric, exhaust 80° C., 60 min, curing 180° C., curing dwell time 3.0 min): 1.3 Log | Log reduction of antimicrobial performance (pure polyester fabric, exhaust 80° C., 60 min, dosage 0.1% o.w.f): 0.72 Log | Log reduction of antimicrobial performance (pure polyester fabric, exhaust 80° C., 60 min, dosage 0.2% o.w.f): 1.65 Log | Log reduction of antimicrobial performance (pure polyester fabric, exhaust 80° C., 60 min, dosage 0.5% o.w.f): 1.75 Log | Log reduction of antimicrobial performance (pure polyester fabric, exhaust 80° C., 60 min, dosage 0.8% o.w.f): 2.16 Log | Log reduction of antimicrobial performance (pure polyester fabric, exhaust 80° C., 60 min, dosage 1.0% o.w.f): 2.58 Log | Log reduction of antimicrobial performance (solution dosage 0.10% o.w.f, exhaust temperature 40° C., process time 60 min): 0 Log | Log reduction of antimicrobial performance (solution dosage 0.10% o.w.f, exhaust temperature 60° C., process time 60 min): 0 Log | Log reduction of antimicrobial performance (solution dosage 0.10% o.w.f, exhaust temperature 65° C., process time 60 min): 0 Log | Log reduction of antimicrobial performance (solution dosage 0.10% o.w.f, exhaust temperature 70° C., process time 60 min): 0 Log | Log reduction of antimicrobial performance (solution dosage 0.10% o.w.f, exhaust temperature 75° C., process time 60 min): 0.63 Log | Log reduction of antimicrobial performance (solution dosage 0.10% o.w.f, exhaust temperature 80° C., process time 60 min): 0.78 Log | Log reduction of antimicrobial performance (solution dosage 0.10% o.w.f, exhaust temperature 85° C., process time 60 min): 0.81 Log | Log reduction of antimicrobial performance (solution dosage 0.10% o.w.f, exhaust temperature 90° C., process time 60 min): 0.82 Log | Log reduction of antimicrobial performance (solution dosage 0.10% o.w.f, exhaust temperature 95° C., process time 60 min): 0.82 Log | Log reduction of antimicrobial performance (solution dosage 0.20% o.w.f, exhaust temperature 40° C., process time 60 min): 0 Log | Log reduction of antimicrobial performance (solution dosage 0.20% o.w.f, exhaust temperature 60° C., process time 60 min): 0.09 Log | Log reduction of antimicrobial performance (solution dosage 0.20% o.w.f, exhaust temperature 65° C., process time 60 min): 0.10 Log | Log reduction of antimicrobial performance (solution dosage 0.20% o.w.f, exhaust temperature 70° C., process time 60 min): 0.17 Log | Log reduction of antimicrobial performance (solution dosage 0.20% o.w.f, exhaust temperature 75° C., process time 60 min): 0.92 Log | Log reduction of antimicrobial performance (solution dosage 0.20% o.w.f, exhaust temperature 80° C., process time 60 min): 1.52 Log | Log reduction of antimicrobial performance (solution dosage 0.20% o.w.f, exhaust temperature 85° C., process time 60 min): 1.65 Log | Log reduction of antimicrobial performance (solution dosage 0.20% o.w.f, exhaust temperature 90° C., process time 60 min): 1.65 Log | Log reduction of antimicrobial performance (solution dosage 0.20% o.w.f, exhaust temperature 95° C., process time 60 min): 1.65 Log | Log reduction of antimicrobial performance (solution dosage 0.50% o.w.f, exhaust temperature 40° C., process time 60 min): 0 Log | Log reduction of antimicrobial performance (solution dosage 0.50% o.w.f, exhaust temperature 60° C., process time 60 min): 0.17 Log | Log reduction of antimicrobial performance (solution dosage 0.50% o.w.f, exhaust temperature 65° C., process time 60 min): 0.18 Log | Log reduction of antimicrobial performance (solution dosage 0.50% o.w.f, exhaust temperature 70° C., process time 60 min): 0.19 Log | Log reduction of antimicrobial performance (solution dosage 0.50% o.w.f, exhaust temperature 75° C., process time 60 min): 1.23 Log | Log reduction of antimicrobial performance (solution dosage 0.50% o.w.f, exhaust temperature 80° C., process time 60 min): 1.78 Log | Log reduction of antimicrobial performance (solution dosage 0.50% o.w.f, exhaust temperature 85° C., process time 60 min): 1.82 Log | Log reduction of antimicrobial performance (solution dosage 0.50% o.w.f, exhaust temperature 90° C., process time 60 min): 1.83 Log | Log reduction of antimicrobial performance (solution dosage 0.50% o.w.f, exhaust temperature 95° C., process time 60 min): 1.83 Log | Log reduction of antimicrobial performance (solution dosage 0.80% o.w.f, exhaust temperature 40° C., process time 60 min): 0 Log | Log reduction of antimicrobial performance (solution dosage 0.80% o.w.f, exhaust temperature 60° C., process time 60 min): 0.23 Log | Log reduction of antimicrobial performance (solution dosage 0.80% o.w.f, exhaust temperature 65° C., process time 60 min): 0.24 Log | Log reduction of antimicrobial performance (solution dosage 0.80% o.w.f, exhaust temperature 70° C., process time 60 min): 0.36 Log | Log reduction of antimicrobial performance (solution dosage 0.80% o.w.f, exhaust temperature 75° C., process time 60 min): 1.32 Log | Log reduction of antimicrobial performance (solution dosage 0.80% o.w.f, exhaust temperature 80° C., process time 60 min): 2.13 Log | Log reduction of antimicrobial performance (solution dosage 0.80% o.w.f, exhaust temperature 85° C., process time 60 min): 2.23 Log | Log reduction of antimicrobial performance (solution dosage 0.80% o.w.f, exhaust temperature 90° C., process time 60 min): 2.34 Log | Log reduction of antimicrobial performance (solution dosage 0.80% o.w.f, exhaust temperature 95° C., process time 60 min): 2.34 Log | Log reduction of antimicrobial performance (solution dosage 1.00% o.w.f, exhaust temperature 40° C., process time 60 min): 0 Log | Log reduction of antimicrobial performance (solution dosage 1.00% o.w.f, exhaust temperature 60° C., process time 60 min): 0.28 Log | Log reduction of antimicrobial performance (solution dosage 1.00% o.w.f, exhaust temperature 65° C., process time 60 min): 0.29 Log | Log reduction of antimicrobial performance (solution dosage 1.00% o.w.f, exhaust temperature 70° C., process time 60 min): 0.42 Log | Log reduction of antimicrobial performance (solution dosage 1.00% o.w.f, exhaust temperature 75° C., process time 60 min): 1.45 Log | Log reduction of antimicrobial performance (solution dosage 1.00% o.w.f, exhaust temperature 80° C., process time 60 min): 2.56 Log | Log reduction of antimicrobial performance (solution dosage 1.00% o.w.f, exhaust temperature 85° C., process time 60 min): 2.69 Log | Log reduction of antimicrobial performance (solution dosage 1.00% o.w.f, exhaust temperature 90° C., process time 60 min): 2.71 Log | Log reduction of antimicrobial performance (solution dosage 1.00% o.w.f, exhaust temperature 95° C., process time 60 min): 2.71 Log
